Test results as given in patent publication US20260069571A1, “DDR1 AND DDR2 INHIBITORS FOR THE TREATEMENT OF CANCER AND FIBROTIC DISEASES” (REDX PHARMA PLC, priority 2021, published 2026).

What was measured:
Recombinant human DDR1 = Recombinant human DDR1 (Homo sapiens (Human), UniProt Q08345); experiment: LanthaScreen Eu Kinase Binding Assay, DDR1; conditions: DDR1 2.5 nM (aa440-876, GST tag), Kinase Tracer 178 5 nM; for IC50: read-out: DDR1 pIC50 (converted)
Description: (§1) DDR1 and DDR2 Biochemical Assay Method
(§2) The capacity of compounds to bind to DDR1 and DDR2 was quantified using a LanthaScreen Eu Kinase Binding Assay. Recombinant human DDR1 (2.5 nM; aa440-876 containing a GST tag) and DDR2 (1.75 nM; aa427-855 containing a GST tag) were diluted in assay buffer (50 mM HEPES pH7.3, 10 mM MgCl2, 1 mM EGTA and 0.01% Tween) with various concentrations of compound in a 384-well plate and a volume of 5 uL. After a 30-minute incubation at room temperature, 2.5 uL of Eu-anti GST antibody (diluted to 1 nM in assay buffer) plus Kinase Tracer 178 (diluted in assay buffer to 5 nM for DDR1 and 10 nM for DDR2) were added to the plate. Following 60-minute incubation at room temperature, time-resolved fluorescence was measured on a BMG Labtech PHERAstar plate reader. DMSO (1%) and reference compound (1 μM) were used to generate the Max and Min assay signals, respectively. Data was analysed using a four-parameter logistic model to calculate IC50 values, with at least two independent replicates were performed for each compound.

Recombinant human DDR2 = Recombinant human DDR2 (Homo sapiens (Human), UniProt Q16832); experiment: LanthaScreen Eu Kinase Binding Assay, DDR2; conditions: DDR2 1.75 nM (aa427-855, GST tag), Kinase Tracer 178 10 nM; for IC50: read-out: DDR2 pIC50 (converted)
Recombinant human DDR2, sequence (Q16832 427-855): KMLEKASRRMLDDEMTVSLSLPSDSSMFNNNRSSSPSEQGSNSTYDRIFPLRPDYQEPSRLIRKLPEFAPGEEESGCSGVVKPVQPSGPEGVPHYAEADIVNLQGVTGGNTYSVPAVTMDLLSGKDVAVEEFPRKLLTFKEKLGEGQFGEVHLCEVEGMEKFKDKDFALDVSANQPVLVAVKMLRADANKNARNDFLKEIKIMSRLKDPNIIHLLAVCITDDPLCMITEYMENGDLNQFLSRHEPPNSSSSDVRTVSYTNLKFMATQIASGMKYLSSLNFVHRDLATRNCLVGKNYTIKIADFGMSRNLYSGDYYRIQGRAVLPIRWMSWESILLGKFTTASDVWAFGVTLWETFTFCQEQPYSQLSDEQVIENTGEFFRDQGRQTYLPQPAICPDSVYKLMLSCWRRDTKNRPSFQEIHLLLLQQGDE
Description: as §1, §2

Recombinant human DDR1, sequence (Q08345 other isoform, or with tags, fused parts or gaps): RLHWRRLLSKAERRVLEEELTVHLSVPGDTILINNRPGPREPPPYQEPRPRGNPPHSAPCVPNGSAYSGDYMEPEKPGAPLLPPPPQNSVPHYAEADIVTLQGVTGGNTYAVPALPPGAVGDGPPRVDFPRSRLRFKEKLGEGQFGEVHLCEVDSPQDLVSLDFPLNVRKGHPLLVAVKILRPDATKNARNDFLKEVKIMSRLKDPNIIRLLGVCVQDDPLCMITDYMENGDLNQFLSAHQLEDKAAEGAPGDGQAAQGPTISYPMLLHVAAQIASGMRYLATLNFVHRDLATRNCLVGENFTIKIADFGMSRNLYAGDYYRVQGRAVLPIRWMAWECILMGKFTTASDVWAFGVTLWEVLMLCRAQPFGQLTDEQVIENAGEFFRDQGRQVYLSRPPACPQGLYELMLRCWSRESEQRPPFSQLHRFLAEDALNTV

SMILES	IC50 (Recombinant human DDR1) [nM]	IC50 (Recombinant human DDR2) [nM]	DDR1 pIC50 (Recombinant human DDR1)	DDR2 pIC50 (Recombinant human DDR2)
Cn1ncc2cc(Nc3cccc4c3C(=O)N(CC(=O)NCC(F)(F)F)C4)ccc21 [Example 1, 2-[7-[(1-Methylindazol-5-yl)amino]-1-oxo-isoindolin-2-yl]-N-(2,2,2-trifluoroethyl) acetamide]	< 10	10 to 100	–	–
O=C1c2c(cccc2Nc2cnc3[nH]ncc3c2)CN1CC(=O)N1CCC[C@H]1C(F)(F)F [Example 74, 2-[2-oxo-2-[(2S)-(trifluoromethyl)pyrrolidin-1-yl]ethyl]-7-(1H-pyrazolo[3,4-b]pyridin-5-ylamino)isoindolin-1-one]	< 10	< 10	–	–
Cc1n[nH]c2cc(Nc3cccc4c3C(=O)N(CC(=O)NCC(F)(F)F)C4)cc(F)c12 [Example 62, 2-[7-[(4-fluoro-3-methyl-1H-indazol-6-yl)amino]-1-oxo-isoindolin-2-yl]-N-(2,2,2-trifluoroethyl)acetamide]	–	–	A (pIC50>8)	A (pIC50>8)
Cc1n[nH]c2cc(Nc3cccc4c3C(=O)N(CC(=O)N[C@@H](C)C(F)(F)F)C4)ccc12 [Example 28, 2-[7-[(3-methyl-1H-indazol-6-yl)amino]-1-oxo-isoindolin-2-yl]-N-[(1S)-2,2,2-trifluoro-1-methyl-ethyl]acetamide]	–	–	A (pIC50>8)	A (pIC50>8)
O=C(CN1Cc2cccc(Nc3cnc4[nH]ncc4c3)c2C1=O)NCC(F)(F)F [Example 22, 2-[1-oxo-7-(1H-pyrazolo[3,4-b]pyridin-5-ylamino)isoindolin-2-yl]-N-(2,2,2-trifluoroethyl)acetamide]	10 to 100	–	–	D (pIC50≤6)

Continued, values first:

IC50 (Recombinant human DDR1) [nM]	IC50 (Recombinant human DDR2) [nM]	DDR1 pIC50 (Recombinant human DDR1)	DDR2 pIC50 (Recombinant human DDR2)	SMILES
100 to 1000	100 to 1000	–	–	Cn1ncc2cc(Nc3cccc4c3C(=O)N(CC(=O)N3CCO[C@@H](C(F)(F)F)C3)C4)cnc21 [Example 55, 7-[(1-methylpyrazolo[3,4-b]pyridin-5-yl)amino]-2-[2-oxo-2-[(2R)-(trifluoromethyl)morpholin-4-yl]ethyl]isoindolin-1-one]
–	–	A (pIC50>8)	A (pIC50>8)	Cc1n[nH]c2cc(Nc3cccc4c3C(=O)N(CC(=O)N3CCC[C@H]3C(F)F)C4)ccc12 [Example 41, 7-[(3-methyl-1H-indazol-6-yl)amino]-2-[2-oxo-2-[(2S)-(difluoromethyl)pyrrolidin-1-yl]ethyl]isoindolin-1-one]
10 to 100	10 to 100	–	–	C[C@H](NC(=O)CN1Cc2cccc(N(C)c3cnc4[nH]ncc4c3)c2C1=O)C(F)(F)F [Example 89, 2-[7-[methyl(1H-pyrazolo[3,4-b]pyridin-5-yl)amino]-1-oxo-isoindolin-2-yl]-N-[(1S)-2,2,2-trifluoro-1-methyl-ethyl]acetamide]
10 to 100	100 to 1000	–	–	Cc1n[nH]c2cc(Nc3cccc4c3C(=O)N(CC(=O)N3CCO[C@H](C(F)(F)F)C3)C4)cnc12 [Example 69, 7-[(3-methyl-1H-pyrazolo[4,3-b]pyridin-6-yl)amino]-2-[2-oxo-2-[(2S)-(trifluoromethyl)morpholin-4-yl]ethyl]isoindolin-1-one]
< 10	< 10	–	–	Cc1n[nH]c2cc(Nc3cccc4c3C(=O)N(CC(=O)N3CCC[C@H]3C(F)(F)F)C4)cnc12 [Example 67, 7-[(3-methyl-1H-pyrazolo[4,3-b]pyridin-6-yl)amino]-2-[2-oxo-2-[(2S)-(trifluoromethyl)pyrrolidin-1-yl]ethyl]isoindolin-1-one]
10 to 100	100 to 1000	–	–	Cn1ncc2cc(Nc3cccc4c3C(=O)N(CC(=O)N3CC(C(F)(F)F)C3)C4)ccc21 [Example 18, 7-[(1-methylindazol-5-yl)amino]-2-[2-oxo-2-[3-(trifluoromethyl)73zetidine-1-yl]ethyl]isoindolin-1-one]
–	10 to 100	–	–	Cn1ncc2cc(Nc3cccc4c3C(=O)N(CC(=O)N3CCCC(C(F)(F)F)C3)C4)ccc21 (stereo not drawn) [Example 12]
10 to 100	–	–	–	Cc1n[nH]c2cc(Nc3cccc4c3C(=O)N(CC(=O)NCC(F)(F)F)C4)cc(Cl)c12 [Example 91, 2-[7-[(4-chloro-3-methyl-1H-indazol-6-yl)amino]-1-oxo-isoindolin-2-yl]-N-(2,2,2-trifluoroethyl)acetamide]
